In US20240115557A1, “INHIBITORS OF RNA-GUIDED NUCLEASES AND USES THEREOF” (The Brigham and Women's Hospital, Inc., priority 2022, published 2024):

Target: T1, SaCas9 (Staphylococcus aureus, UniProt J7RUA5)
T1 sequence (J7RUA5 1-1053): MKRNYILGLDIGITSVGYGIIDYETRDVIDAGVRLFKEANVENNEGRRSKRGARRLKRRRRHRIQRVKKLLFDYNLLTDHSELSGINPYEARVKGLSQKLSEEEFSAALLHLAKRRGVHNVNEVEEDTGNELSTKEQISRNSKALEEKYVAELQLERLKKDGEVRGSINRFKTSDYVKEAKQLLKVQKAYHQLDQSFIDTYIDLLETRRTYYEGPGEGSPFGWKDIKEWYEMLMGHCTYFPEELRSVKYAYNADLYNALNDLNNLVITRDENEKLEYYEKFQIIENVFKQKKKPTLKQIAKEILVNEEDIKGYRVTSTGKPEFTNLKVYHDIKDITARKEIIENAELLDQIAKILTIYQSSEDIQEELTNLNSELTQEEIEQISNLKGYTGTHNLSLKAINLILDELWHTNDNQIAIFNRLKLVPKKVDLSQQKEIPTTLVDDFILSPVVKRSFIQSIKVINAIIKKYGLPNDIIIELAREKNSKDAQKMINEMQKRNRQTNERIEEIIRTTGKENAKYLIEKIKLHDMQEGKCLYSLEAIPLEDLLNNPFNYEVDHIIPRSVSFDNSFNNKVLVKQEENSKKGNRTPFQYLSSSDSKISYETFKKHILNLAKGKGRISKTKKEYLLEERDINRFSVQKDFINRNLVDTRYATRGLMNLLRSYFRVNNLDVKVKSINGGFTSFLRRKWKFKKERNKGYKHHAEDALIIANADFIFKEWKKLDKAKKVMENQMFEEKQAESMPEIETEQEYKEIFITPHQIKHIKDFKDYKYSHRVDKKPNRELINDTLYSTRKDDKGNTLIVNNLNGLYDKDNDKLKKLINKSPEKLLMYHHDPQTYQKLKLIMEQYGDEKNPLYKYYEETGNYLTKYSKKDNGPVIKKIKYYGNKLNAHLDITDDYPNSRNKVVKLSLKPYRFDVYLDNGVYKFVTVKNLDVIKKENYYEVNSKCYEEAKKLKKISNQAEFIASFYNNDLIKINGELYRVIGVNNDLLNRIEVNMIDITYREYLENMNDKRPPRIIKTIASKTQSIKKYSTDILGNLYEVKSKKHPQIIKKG
Assay: Strand displacement assay, SaCas9 primary screen
Assay type: biochemical
Conditions: for Auto Zscore Rep 1 / Auto Zscore Rep 2 / Normalized Zscore Rep 1 / Normalized Zscore Rep 2: SaCas9 primary screen; for Auto Zscore Rep 1 / Normalized Zscore Rep 1: replicate 1; for Auto Zscore Rep 2 / Normalized Zscore Rep 2: replicate 2; for Normalized Zscore Rep 1 / Normalized Zscore Rep 2: weaker potential hits; for 3 sigma Hit: flag 1 = hit at 3 sigma; for 5 sigma Hit: flag 1 = hit at 5 sigma
Method in brief: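 Cas9 RNP (1:1.2 protein:gRNA) pre-formed in 20 mM Tris-HCl pH 7.5, 100 mM KCl, 5 mM MgCl2, used at 10 nM (2× stock) with Alexa-Fluor 647 substrate/quencher at 1 nM/5 nM (2× stock). Reaction ran 2.5 h at 37°C; strand displacement read as fluorescence. Hits called by Z-score: 3–5σ weak, >5σ strong.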

With c1ccc(Cc2nn3c(-c4cccnc4)nnc3s2)cc1 [Compound D727-0066] the “Auto Zscore Rep 1” value was 0.2456, the “Auto Zscore Rep 2” value was 1.309 and the “Normalized Zscore Rep 1” value was 0.1917. For the same compound, the “Normalized Zscore Rep 2” value was 0.2236, the “3 sigma Hit” value was 1 and the “5 sigma Hit” value was 1.
In the case of Cc1nc2ccccc2n1Cc1nnc2n1N=C(N)CS2 [Compound D727-0339], the “Auto Zscore Rep 1” value is reported as −1.123, the “Auto Zscore Rep 2” value is reported as −1.939 and the “Normalized Zscore Rep 1” value is reported as 0.1478. For the same compound, the “Normalized Zscore Rep 2” value was 0.2051 and the “3 sigma Hit” value was 1.
With Cc1ccccc1OCc1nn2c(C(C)C)nnc2s1 [Compound D727-0350] the “Auto Zscore Rep 1” value was −0.2032, the “Auto Zscore Rep 2” value was 0.9814 and the “Normalized Zscore Rep 1” value was 0.2025. The “Normalized Zscore Rep 2” value was 0.2065, the “3 sigma Hit” value was 1 and the “5 sigma Hit” value was 1.
In the case of Cc1ccccc1OCc1nn2c(C(C)(C)C)nnc2s1 [Compound D727-0351], the “Auto Zscore Rep 1” value is reported as −0.02144, the “Auto Zscore Rep 2” value is reported as −0.3042 and the “Normalized Zscore Rep 1” value is reported as 0.2896. For the same compound, the “Normalized Zscore Rep 2” value was 0.3227, the “3 sigma Hit” value was 1 and the “5 sigma Hit” value was 1.
In the case of Brc1ccc(OCc2nn3c(-c4ccccn4)nnc3s2)cc1 [Compound D727-0522], the “Auto Zscore Rep 1” value is reported as 1.021, the “Auto Zscore Rep 2” value is reported as 0.5297 and the “Normalized Zscore Rep 1” value is reported as 0.3471. For the same compound, the “Normalized Zscore Rep 2” value was 0.3776, the “3 sigma Hit” value was 1 and the “5 sigma Hit” value was 1.
For Fc1ccc(OCc2nn3c(-c4ccccn4)nnc3s2)cc1 [Compound D727-0525], the “Auto Zscore Rep 1” value was 0.9393, the “Auto Zscore Rep 2” value was 1.066 and the “Normalized Zscore Rep 1” value was 0.3566. The “Normalized Zscore Rep 2” value was 0.3426, the “3 sigma Hit” value was 1 and the “5 sigma Hit” value was 1.
In the case of NC(=O)c1c(NC(=O)COCc2cc(-c3ccc4c(c3)OCO4)on2)sc2c1CCCC2 [Compound E613-0091], the “Auto Zscore Rep 1” value is reported as −0.4678, the “Auto Zscore Rep 2” value is reported as −1.998 and the “Normalized Zscore Rep 1” value is reported as 0.1515. The “Normalized Zscore Rep 2” value was 0.3604 and the “3 sigma Hit” value was 1.
With NS(=O)(=O)c1ccc(CCNC(=O)C2=Cc3sc4c(c3CS2)CCCC4)cc1 [Compound E722-2588] the “Auto Zscore Rep 1” value was 0.2247, the “Auto Zscore Rep 2” value was −0.3407 and the “Normalized Zscore Rep 1” value was 0.2746. For the same compound, the “Normalized Zscore Rep 2” value was 0.2871, the “3 sigma Hit” value was 1 and the “5 sigma Hit” value was 1.
For NC(=O)c1sc(=S)n2c1[nH]c(=O)c1ccc(Cl)cc12 [Compound F083-0067], the “Auto Zscore Rep 1” value was −0.5214, the “Auto Zscore Rep 2” value was 0.84 and the “Normalized Zscore Rep 1” value was 0.2245. The “Normalized Zscore Rep 2” value was 0.2068, the “3 sigma Hit” value was 1 and the “5 sigma Hit” value was 1.
CCCN1CCN(c2ccc(C(=O)O)cc2NC(=O)c2ccccc2Cl)CC1 [Compound F086-0004] was tested, and the “Auto Zscore Rep 1” value was −1.483, the “Auto Zscore Rep 2” value was 1.076 and the “Normalized Zscore Rep 1” value was 0.2725. The “Normalized Zscore Rep 2” value was 0.2108, the “3 sigma Hit” value was 1 and the “5 sigma Hit” value was 1.
CC(C)NC(=O)CN1CCN(c2ccc(C(=O)O)cc2NC(=O)c2ccccc2Cl)CC1 [Compound F086-0028] was tested, and the “Auto Zscore Rep 1” value was −0.07719, the “Auto Zscore Rep 2” value was 0.5847 and the “Normalized Zscore Rep 1” value was 0.2467. For the same compound, the “Normalized Zscore Rep 2” value was 0.2295, the “3 sigma Hit” value was 1 and the “5 sigma Hit” value was 1.
COCCCNC(=O)CN1CCN(c2ccc(C(=O)O)cc2NC(=O)c2ccccc2Cl)CC1 [Compound F086-0033] was tested, and the “Auto Zscore Rep 1” value was −0.0657, the “Auto Zscore Rep 2” value was −0.1907 and the “Normalized Zscore Rep 1” value was 0.1937. For the same compound, the “Normalized Zscore Rep 2” value was 0.2246, the “3 sigma Hit” value was 1 and the “5 sigma Hit” value was 1.
For O=C(O)c1ccc(N2CCN(c3ccccn3)CC2)c(NC(=O)c2ccc(Br)cc2)c1 [Compound F086-0619], the “Auto Zscore Rep 1” value was 1.213, the “Auto Zscore Rep 2” value was 0.1224 and the “Normalized Zscore Rep 1” value was 0.2335. The “Normalized Zscore Rep 2” value was 0.1451, the “3 sigma Hit” value was 1 and the “5 sigma Hit” value was 1.
With Nc1c(C(=O)N2CCCC2)sc(=S)n1Cc1ccccc1 [Compound F128-0041] the “Auto Zscore Rep 1” value was 1.188, the “Auto Zscore Rep 2” value was −1.115 and the “Normalized Zscore Rep 1” value was 0.3576. For the same compound, the “Normalized Zscore Rep 2” value was 0.3845, the “3 sigma Hit” value was 1 and the “5 sigma Hit” value was 1.
In the case of Nc1c(C(=O)N2CCCCC2)sc(=S)n1Cc1ccccc1 [Compound F128-0042], the “Auto Zscore Rep 1” value is reported as −0.3436, the “Auto Zscore Rep 2” value is reported as 0.3038 and the “Normalized Zscore Rep 1” value is reported as 0.2801. For the same compound, the “Normalized Zscore Rep 2” value was 0.2612, the “3 sigma Hit” value was 1 and the “5 sigma Hit” value was 1.
With Nc1c(C(=O)NCC2CCCO2)sc(=S)n1-c1ccc(Cl)cc1 (centres unmarked) [Compound F128-0076] the “Auto Zscore Rep 1” value was −0.6285, the “Auto Zscore Rep 2” value was −1.451 and the “Normalized Zscore Rep 1” value was 0.3168. For the same compound, the “Normalized Zscore Rep 2” value was 0.2064, the “3 sigma Hit” value was 1 and the “5 sigma Hit” value was 1.
For CS(=O)(=O)Nc1cnc(N2CCC(C(N)=O)(N3CCCCC3)CC2)c(C(=O)O)c1 [Compound F293-0183], the “Auto Zscore Rep 1” value was 1.533, the “Auto Zscore Rep 2” value was −0.4148 and the “Normalized Zscore Rep 1” value was 0.2879. For the same compound, the “Normalized Zscore Rep 2” value was 0.3283, the “3 sigma Hit” value was 1 and the “5 sigma Hit” value was 1.
O=C(O)c1cc(NS(=O)(=O)c2cc(F)ccc2F)cnc1N1CCC(N2CCCCC2)CC1 [Compound F293-0616] was tested, and the “Auto Zscore Rep 1” value was −0.1879, the “Auto Zscore Rep 2” value was −0.1846 and the “Normalized Zscore Rep 1” value was 0.1887. For the same compound, the “Normalized Zscore Rep 2” value was 0.1788 and the “3 sigma Hit” value was 1.
For CS(=O)(=O)Nc1cnc(N2CCC(CCN3CCOCC3)CC2)c(C(=O)O)c1 [Compound F293-0898], the “Auto Zscore Rep 1” value was 0.3628, the “Auto Zscore Rep 2” value was 0.2374 and the “Normalized Zscore Rep 1” value was 0.3858. For the same compound, the “Normalized Zscore Rep 2” value was 0.277, the “3 sigma Hit” value was 1 and the “5 sigma Hit” value was 1.
In the case of CN(C)S(=O)(=O)Nc1cnc(N2CCC(CCN3CCCCC3)CC2)c(C(=O)O)c1 [Compound F293-0962], the “Auto Zscore Rep 1” value is reported as −1.575, the “Auto Zscore Rep 2” value is reported as −1.36 and the “Normalized Zscore Rep 1” value is reported as 0.2533. The “Normalized Zscore Rep 2” value was 0.277, the “3 sigma Hit” value was 1 and the “5 sigma Hit” value was 1.
With CCN(Cc1ccccc1)c1ccc(NS(=O)(=O)c2ccc(OC)cc2)cc1C(=O)O [Compound F294-0003] the “Auto Zscore Rep 1” value was 0.9297, the “Auto Zscore Rep 2” value was −1.427 and the “Normalized Zscore Rep 1” value was 0.2547. For the same compound, the “Normalized Zscore Rep 2” value was 0.2729, the “3 sigma Hit” value was 1 and the “5 sigma Hit” value was 1.
For CN(C)S(=O)(=O)Nc1ccc(N2CCC(C(N)=O)(N3CCCCC3)CC2)c(C(=O)O)c1 [Compound F294-0183], the “Auto Zscore Rep 1” value was −1.66, the “Auto Zscore Rep 2” value was −0.5827 and the “Normalized Zscore Rep 1” value was 0.1624. The “Normalized Zscore Rep 2” value was 0.2442 and the “3 sigma Hit” value was 1.
With CN(C)S(=O)(=O)Nc1ccc(N2CCC(CCN3CCOCC3)CC2)c(C(=O)O)c1 [Compound F294-0900] the “Auto Zscore Rep 1” value was −2.121, the “Auto Zscore Rep 2” value was 0.2518 and the “Normalized Zscore Rep 1” value was 0.2307. The “Normalized Zscore Rep 2” value was 0.229, the “3 sigma Hit” value was 1 and the “5 sigma Hit” value was 1.
In the case of CN(C)S(=O)(=O)Nc1ccc(N2CCCC(CN3CCCC3)C2)c(C(=O)O)c1 (centres unmarked) [Compound F294-0983], the “Auto Zscore Rep 1” value is reported as −0.3877, the “Auto Zscore Rep 2” value is reported as −0.5875 and the “Normalized Zscore Rep 1” value is reported as 0.2894. The “Normalized Zscore Rep 2” value was 0.2577, the “3 sigma Hit” value was 1 and the “5 sigma Hit” value was 1.
